Measurements reported in PMC12848717, “Discovery of Encrypted Peptides in a Human Matrix Metallopeptidase” (JACS Au, 2025).
Where two headings read alike, the source gives them in different places. Ends that are not written are not given here.

Experiments:
A. baumannii ATCC 19606 = conditions: for MIC after treatment 1: serial exposure at MIC/2, treatment 1 of 21; for MIC after treatment 2: serial exposure at MIC/2, treatment 2 of 21; for MIC after treatment 3: serial exposure at MIC/2, treatment 3 of 21; for MIC after treatment 4: serial exposure at MIC/2, treatment 4 of 21; for MIC after treatment 5: serial exposure at MIC/2, treatment 5 of 21; for MIC after treatment 6: serial exposure at MIC/2, treatment 6 of 21; for MIC after treatment 7: serial exposure at MIC/2, treatment 7 of 21; for MIC after treatment 8: serial exposure at MIC/2, treatment 8 of 21; for MIC after treatment 9: serial exposure at MIC/2, treatment 9 of 21; for MIC after treatment 10: serial exposure at MIC/2, treatment 10 of 21; for MIC after treatment 11: serial exposure at MIC/2, treatment 11 of 21; for MIC after treatment 13: serial exposure at MIC/2, treatment 13 of 21; for MIC after treatment 14: serial exposure at MIC/2, treatment 14 of 21; for MIC after treatment 15: serial exposure at MIC/2, treatment 15 of 21; for MIC after treatment 16: serial exposure at MIC/2, treatment 16 of 21; for MIC after treatment 17: serial exposure at MIC/2, treatment 17 of 21; for MIC after treatment 18: serial exposure at MIC/2, treatment 18 of 21; for MIC after treatment 19: serial exposure at MIC/2, treatment 19 of 21; for MIC after treatment 20: serial exposure at MIC/2, treatment 20 of 21; for MIC after treatment 21: serial exposure at MIC/2, treatment 21 of 21
[1] = system: S. epidermidis ATCC 35984; conditions: for MIC after treatment 1: serial exposure at MIC/2, treatment 1 of 21; for MIC after treatment 2: serial exposure at MIC/2, treatment 2 of 21; for MIC after treatment 3: serial exposure at MIC/2, treatment 3 of 21; for MIC after treatment 4: serial exposure at MIC/2, treatment 4 of 21; for MIC after treatment 5: serial exposure at MIC/2, treatment 5 of 21; for MIC after treatment 6: serial exposure at MIC/2, treatment 6 of 21; for MIC after treatment 7: serial exposure at MIC/2, treatment 7 of 21; for MIC after treatment 8: serial exposure at MIC/2, treatment 8 of 21; for MIC after treatment 9: serial exposure at MIC/2, treatment 9 of 21; for MIC after treatment 10: serial exposure at MIC/2, treatment 10 of 21; for MIC after treatment 11: serial exposure at MIC/2, treatment 11 of 21; for MIC after treatment 13: serial exposure at MIC/2, treatment 13 of 21; for MIC after treatment 14: serial exposure at MIC/2, treatment 14 of 21; for MIC after treatment 15: serial exposure at MIC/2, treatment 15 of 21; for MIC after treatment 16: serial exposure at MIC/2, treatment 16 of 21; for MIC after treatment 17: serial exposure at MIC/2, treatment 17 of 21; for MIC after treatment 18: serial exposure at MIC/2, treatment 18 of 21; for MIC after treatment 19: serial exposure at MIC/2, treatment 19 of 21; for MIC after treatment 20: serial exposure at MIC/2, treatment 20 of 21; for MIC after treatment 21: serial exposure at MIC/2, treatment 21 of 21
[2] = system: Human coronavirus 229E (HCoV-229E); conditions: plaque reduction
[3] = Table S3, serial exposure at MIC/2, treatment 12 of 21
[4] = Table S4, serial exposure at MIC/2, treatment 12 of 21

Colistin [reference compound]
4 µM: MIC after treatment 1 (A. baumannii ATCC 19606; Table S3) | MIC after treatment 2 (A. baumannii ATCC 19606; Table S3) | MIC after treatment 3 (A. baumannii ATCC 19606; Table S3) | MIC after treatment 4 (A. baumannii ATCC 19606; Table S3) | MIC after treatment 5 (A. baumannii ATCC 19606; Table S3) | MIC after treatment 6 (A. baumannii ATCC 19606; Table S3) | MIC after treatment 7 (A. baumannii ATCC 19606; Table S3) | MIC after treatment 8 (A. baumannii ATCC 19606; Table S3) | MIC after treatment 9 (A. baumannii ATCC 19606; Table S3) | MIC after treatment 10 (A. baumannii ATCC 19606; Table S3) | MIC after treatment 11 (A. baumannii ATCC 19606; Table S3) | MIC after treatment 12 (A. baumannii ATCC 19606; [3]) | MIC after treatment 13 (A. baumannii ATCC 19606; Table S3) | MIC after treatment 14 (A. baumannii ATCC 19606; Table S3) | MIC after treatment 15 (A. baumannii ATCC 19606; Table S3) | MIC after treatment 16 (A. baumannii ATCC 19606; Table S3) | MIC after treatment 17 (A. baumannii ATCC 19606; Table S3) | MIC after treatment 18 (A. baumannii ATCC 19606; Table S3) | MIC after treatment 19 (A. baumannii ATCC 19606; Table S3) | MIC after treatment 20 (A. baumannii ATCC 19606; Table S3) | MIC after treatment 21 (A. baumannii ATCC 19606; Table S3)
8 µM: MIC after treatment 1 ([1]; Table S4) | MIC after treatment 2 ([1]; Table S4) | MIC after treatment 3 ([1]; Table S4) | MIC after treatment 4 ([1]; Table S4) | MIC after treatment 5 ([1]; Table S4) | MIC after treatment 6 ([1]; Table S4) | MIC after treatment 7 ([1]; Table S4) | MIC after treatment 8 ([1]; Table S4) | MIC after treatment 9 ([1]; Table S4) | MIC after treatment 10 ([1]; Table S4) | MIC after treatment 11 ([1]; Table S4) | MIC after treatment 12 [1, 4] | MIC after treatment 13 ([1]; Table S4) | MIC after treatment 14 ([1]; Table S4) | MIC after treatment 15 ([1]; Table S4) | MIC after treatment 16 ([1]; Table S4) | MIC after treatment 17 ([1]; Table S4) | MIC after treatment 18 ([1]; Table S4) | MIC after treatment 19 ([1]; Table S4) | MIC after treatment 20 ([1]; Table S4) | MIC after treatment 21 ([1]; Table S4)

PYLLLGRWRKKHLTFRILNL [r(P)YLL19]
5 µM: MIC after treatment 12 (A. baumannii ATCC 19606; ATCC 19606) | MIC after treatment 1 (A. baumannii ATCC 19606; Table S3) | MIC after treatment 2 (A. baumannii ATCC 19606; Table S3) | MIC after treatment 3 (A. baumannii ATCC 19606; Table S3) | MIC after treatment 4 (A. baumannii ATCC 19606; Table S3) | MIC after treatment 5 (A. baumannii ATCC 19606; Table S3) | MIC after treatment 6 (A. baumannii ATCC 19606; Table S3) | MIC after treatment 7 (A. baumannii ATCC 19606; Table S3) | MIC after treatment 8 (A. baumannii ATCC 19606; Table S3) | MIC after treatment 9 (A. baumannii ATCC 19606; Table S3) | MIC after treatment 10 (A. baumannii ATCC 19606; Table S3) | MIC after treatment 11 (A. baumannii ATCC 19606; Table S3) | MIC after treatment 13 (A. baumannii ATCC 19606; Table S3) | MIC after treatment 14 (A. baumannii ATCC 19606; Table S3) | MIC after treatment 15 (A. baumannii ATCC 19606; Table S3) | MIC after treatment 16 (A. baumannii ATCC 19606; Table S3) | MIC after treatment 17 (A. baumannii ATCC 19606; Table S3) | MIC after treatment 18 (A. baumannii ATCC 19606; Table S3) | MIC after treatment 19 (A. baumannii ATCC 19606; Table S3) | MIC after treatment 20 (A. baumannii ATCC 19606; Table S3) | MIC after treatment 21 (A. baumannii ATCC 19606; Table S3) | MIC after treatment 12 ([1]; ATCC 35984) | MIC after treatment 1 ([1]; Table S4) | MIC after treatment 2 ([1]; Table S4) | MIC after treatment 3 ([1]; Table S4) | MIC after treatment 4 ([1]; Table S4) | MIC after treatment 5 ([1]; Table S4) | MIC after treatment 6 ([1]; Table S4) | MIC after treatment 7 ([1]; Table S4) | MIC after treatment 8 ([1]; Table S4) | MIC after treatment 9 ([1]; Table S4) | MIC after treatment 10 ([1]; Table S4) | MIC after treatment 11 ([1]; Table S4) | MIC after treatment 13 ([1]; Table S4) | MIC after treatment 14 ([1]; Table S4) | MIC after treatment 15 ([1]; Table S4) | MIC after treatment 16 ([1]; Table S4) | MIC after treatment 17 ([1]; Table S4) | MIC after treatment 18 ([1]; Table S4) | MIC after treatment 19 ([1]; Table S4) | MIC after treatment 20 ([1]; Table S4) | MIC after treatment 21 ([1]; Table S4)
12.5 µM: IC50 ([2]; read-out: IC50, co-treatment, Vero-76 cells exposed to virus and peptide simultaneously, 1 h, 37 °C)
0.56 µM: IC50 ([2]; read-out: IC50, virus pretreatment, virus incubated with peptide 1 h, 37 °C before infection)

Polymyxin B [reference compound]
2 µM: MIC after treatment 1 (A. baumannii ATCC 19606; Table S3) | MIC after treatment 2 (A. baumannii ATCC 19606; Table S3) | MIC after treatment 3 (A. baumannii ATCC 19606; Table S3) | MIC after treatment 4 (A. baumannii ATCC 19606; Table S3) | MIC after treatment 5 (A. baumannii ATCC 19606; Table S3) | MIC after treatment 6 (A. baumannii ATCC 19606; Table S3) | MIC after treatment 7 (A. baumannii ATCC 19606; Table S3) | MIC after treatment 8 (A. baumannii ATCC 19606; Table S3) | MIC after treatment 9 (A. baumannii ATCC 19606; Table S3) | MIC after treatment 10 (A. baumannii ATCC 19606; Table S3) | MIC after treatment 11 (A. baumannii ATCC 19606; Table S3) | MIC after treatment 12 (A. baumannii ATCC 19606; [3]) | MIC after treatment 13 (A. baumannii ATCC 19606; Table S3) | MIC after treatment 14 (A. baumannii ATCC 19606; Table S3) | MIC after treatment 15 (A. baumannii ATCC 19606; Table S3) | MIC after treatment 16 (A. baumannii ATCC 19606; Table S3) | MIC after treatment 17 (A. baumannii ATCC 19606; Table S3) | MIC after treatment 18 (A. baumannii ATCC 19606; Table S3) | MIC after treatment 19 (A. baumannii ATCC 19606; Table S3) | MIC after treatment 20 (A. baumannii ATCC 19606; Table S3) | MIC after treatment 21 (A. baumannii ATCC 19606; Table S3)
4 µM: MIC after treatment 1 ([1]; Table S4) | MIC after treatment 2 ([1]; Table S4) | MIC after treatment 3 ([1]; Table S4) | MIC after treatment 4 ([1]; Table S4) | MIC after treatment 5 ([1]; Table S4) | MIC after treatment 6 ([1]; Table S4) | MIC after treatment 7 ([1]; Table S4) | MIC after treatment 8 ([1]; Table S4) | MIC after treatment 9 ([1]; Table S4) | MIC after treatment 10 ([1]; Table S4) | MIC after treatment 11 ([1]; Table S4) | MIC after treatment 12 [1, 4] | MIC after treatment 13 ([1]; Table S4) | MIC after treatment 14 ([1]; Table S4) | MIC after treatment 15 ([1]; Table S4) | MIC after treatment 16 ([1]; Table S4) | MIC after treatment 17 ([1]; Table S4) | MIC after treatment 18 ([1]; Table S4) | MIC after treatment 19 ([1]; Table S4) | MIC after treatment 20 ([1]; Table S4) | MIC after treatment 21 ([1]; Table S4)
